Measurements as given in PubChem BioAssay (NCI).
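Interpolation was linear, between the two tested concentrations surrounding the appropriate level; five concentrations were tested over 48 hours in 96-well plates. GI50 is the concentration that inhibits growth by half. TGI is the concentration that stops growth completely.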

Legend:
Assay in all cases: inhibition of tumour cell growth, NCI panel, 48 h
HCT-15 colon = tested on: HCT-15 colon
NCI-H522 lung = tested on: NCI-H522 lung
A549 NSCLC = tested on: A549 NSCLC
K-562 leukemia = tested on: K-562 leukemia
CCRF-CEM leukemia = tested on: CCRF-CEM leukemia
HL-60(TB) leukemia = tested on: HL-60(TB) leukemia
HCT-116 colon = tested on: HCT-116 colon
SF-539 CNS = tested on: SF-539 CNS
OVCAR-8 ovarian = tested on: OVCAR-8 ovarian
RPMI-8226 leukemia = tested on: RPMI-8226 leukemia
T-47D breast = tested on: T-47D breast
786-0 renal = tested on: 786-0 renal
SNB-75 CNS = tested on: SNB-75 CNS
PC-3 prostate = tested on: PC-3 prostate
SNB-19 CNS = tested on: SNB-19 CNS
U251 CNS = tested on: U251 CNS
UO-31 renal = tested on: UO-31 renal
SK-MEL-28 melanoma = tested on: SK-MEL-28 melanoma
IGROV1 ovarian = tested on: IGROV1 ovarian
LOX IMVI melanoma = tested on: LOX IMVI melanoma
A498 renal = tested on: A498 renal
ACHN renal = tested on: ACHN renal
UACC-62 melanoma = tested on: UACC-62 melanoma
MALME-3M melanoma = tested on: MALME-3M melanoma
KM12 colon = tested on: KM12 colon
HOP-62 NSCLC = tested on: HOP-62 NSCLC
SK-OV-3 ovarian = tested on: SK-OV-3 ovarian
SW-620 colon = tested on: SW-620 colon
NCI/ADR-RES ovarian = tested on: NCI/ADR-RES ovarian

## CC(C)c1ccc(COCc2cc(CN3CCCC3)c(O)c3ncccc23)cc1
HCT-15 colon
  GI50: 65.5 nM
  TGI: 2070 nM
NCI-H522 lung
  GI50: 287 nM
  TGI: 1110 nM
A549 NSCLC
  GI50: 645 nM
  TGI: 8310 nM
K-562 leukemia
  GI50: 374 nM
  TGI: 2440 nM
CCRF-CEM leukemia
  GI50: 398 nM
  TGI: 3910 nM
HL-60(TB) leukemia
  GI50: 314 nM
  TGI: 1400 nM
HCT-116 colon
  GI50: 348 nM
  TGI: 1470 nM
SF-539 CNS
  GI50: 420 nM
  TGI: 2040 nM
OVCAR-8 ovarian
  GI50: 430 nM
  TGI: 2150 nM
RPMI-8226 leukemia
  GI50: 601 nM
  TGI: 2720 nM
T-47D breast
  GI50: 398 nM
  TGI: 4370 nM
786-0 renal
  GI50: 468 nM
  TGI: 3830 nM
SNB-75 CNS
  GI50: 1190 nM
  TGI: 11500 nM
PC-3 prostate
  GI50: 657 nM
  TGI: 11200 nM
SNB-19 CNS
  GI50: 772 nM
  TGI: 5700 nM
U251 CNS
  GI50: 466 nM
  TGI: 2450 nM
UO-31 renal
  GI50: 127 nM
  TGI: 2140 nM
SK-MEL-28 melanoma
  GI50: 768 nM
  TGI: 10200 nM
IGROV1 ovarian
  GI50: 493 nM
  TGI: 4360 nM
LOX IMVI melanoma
  GI50: 334 nM
  TGI: 1400 nM
A498 renal
  GI50: 778 nM
  TGI: 3810 nM
ACHN renal
  GI50: 149 nM
  TGI: 5440 nM
UACC-62 melanoma
  GI50: 318 nM
  TGI: 1620 nM
MALME-3M melanoma
  GI50: 1450 nM
  TGI: 8120 nM
KM12 colon
  GI50: 534 nM
  TGI: 3130 nM
HOP-62 NSCLC
  GI50: 367 nM
  TGI: 5040 nM
SK-OV-3 ovarian
  GI50: 639 nM
  TGI: 4530 nM
SW-620 colon
  GI50: 471 nM
  TGI: 2380 nM
NCI/ADR-RES ovarian
  GI50: 50.8 nM
  TGI: 840 nM
